Values of other authors as cited in article PMC5144109 (Analytical Chemistry, 2016).
“Also recorded” adds a separate entry of the source. Square brackets hold non-standard residues; d marks the D form. Ends that are not written are not given here.

Experiments:
aminopeptidase M (APM) = target: T1, aminopeptidase M (APM) (Sus scrofa, UniProt P15145); conditions: positive and negative control of the digestion experiments
T1 sequence (P15145 1-963): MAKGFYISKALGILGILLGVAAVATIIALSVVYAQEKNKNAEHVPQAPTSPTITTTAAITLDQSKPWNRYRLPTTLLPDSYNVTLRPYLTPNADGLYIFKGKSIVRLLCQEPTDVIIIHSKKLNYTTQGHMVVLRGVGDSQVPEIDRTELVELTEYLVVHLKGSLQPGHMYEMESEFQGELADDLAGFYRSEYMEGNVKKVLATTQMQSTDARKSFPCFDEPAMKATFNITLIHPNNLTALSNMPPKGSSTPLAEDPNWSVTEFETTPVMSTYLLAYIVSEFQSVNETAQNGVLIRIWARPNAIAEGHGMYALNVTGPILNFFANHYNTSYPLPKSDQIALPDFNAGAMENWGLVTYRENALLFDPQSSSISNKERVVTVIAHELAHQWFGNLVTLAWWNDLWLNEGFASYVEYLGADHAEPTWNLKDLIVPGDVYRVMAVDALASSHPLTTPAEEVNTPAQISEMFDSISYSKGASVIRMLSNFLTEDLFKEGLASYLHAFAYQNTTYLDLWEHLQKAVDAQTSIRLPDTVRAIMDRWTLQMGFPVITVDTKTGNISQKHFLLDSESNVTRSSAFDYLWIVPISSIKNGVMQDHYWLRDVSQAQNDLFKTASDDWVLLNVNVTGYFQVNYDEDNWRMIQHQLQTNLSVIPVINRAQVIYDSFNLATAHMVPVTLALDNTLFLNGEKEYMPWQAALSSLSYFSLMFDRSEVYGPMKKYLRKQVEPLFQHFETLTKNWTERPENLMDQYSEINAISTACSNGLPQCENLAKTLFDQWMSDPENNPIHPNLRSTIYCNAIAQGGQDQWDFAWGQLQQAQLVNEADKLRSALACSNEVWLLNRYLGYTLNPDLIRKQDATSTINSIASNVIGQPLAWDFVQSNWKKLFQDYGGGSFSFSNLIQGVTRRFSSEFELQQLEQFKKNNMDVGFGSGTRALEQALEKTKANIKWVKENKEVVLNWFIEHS

opioid receptors = conditions: in mammals

Substance | digestion by APM (control peptides) (aminopeptidase M (APM)) | potency compared with morphine (opioid receptors)
Asn-[dW]-Phe-NH2 [NdWFamide] | is not digested by APM; also recorded: known to resist degradation by APM | 
Human angiotensin I acetate salt hydrate | is digested by APM | 
dermorphin |  | higher potency than morphine
